The source made the active and inactive calls.
Tests used:
HEK293 = assay: cells; format: functional, cell-based; settings: Homo sapiens
[1] = target: T1, Nuclear receptor subfamily 0 group B member 1 (Homo sapiens, UniProt P51843); assay: Luminescence-based cell-based high throughput dose response assay for inhibitors of the orphan nuclear receptor subfamily 0, group B, member 1 (DAX1; NR0B1). [Related pubchem assays (depositor defined):AID504766, AID504790]; format: functional
T1 sequence (P51843 whole entry): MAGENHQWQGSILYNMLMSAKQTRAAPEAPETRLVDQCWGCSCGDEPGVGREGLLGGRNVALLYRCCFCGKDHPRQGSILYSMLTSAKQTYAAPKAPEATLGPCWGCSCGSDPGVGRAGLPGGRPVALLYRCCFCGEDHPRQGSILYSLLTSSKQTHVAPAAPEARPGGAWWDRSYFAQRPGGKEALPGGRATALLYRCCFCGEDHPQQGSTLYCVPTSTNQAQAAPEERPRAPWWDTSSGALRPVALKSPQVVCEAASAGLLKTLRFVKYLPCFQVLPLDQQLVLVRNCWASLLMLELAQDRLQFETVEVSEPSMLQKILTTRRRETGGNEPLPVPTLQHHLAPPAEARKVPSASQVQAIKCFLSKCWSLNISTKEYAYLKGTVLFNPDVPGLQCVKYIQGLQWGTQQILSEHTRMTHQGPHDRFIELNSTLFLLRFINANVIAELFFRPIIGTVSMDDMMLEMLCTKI

[2] = target: T2, Small ubiquitin-related modifier 1 (Homo sapiens, UniProt P63165); assay: SUMO1 protein interaction blockers, potency – biochemical, fluorescence polarization, uHTS hits, dose response (AID 624382); format: functional; settings: read-out: IC50_Mean
T2 sequence (P63165 whole entry): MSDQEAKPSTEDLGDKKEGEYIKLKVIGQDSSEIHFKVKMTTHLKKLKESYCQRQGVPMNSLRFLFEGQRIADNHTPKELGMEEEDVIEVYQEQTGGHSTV

[3] = target: T2, Small ubiquitin-related modifier 1; assay: SUMO1 protein-protein binding blockers, potency – biochemical, FRET, dose response (AID 624383); format: functional; settings: read-out: IC50_Mean
[4] = target: T3, DNA repair and recombination protein RAD54-like (Homo sapiens, UniProt Q92698); assay: RAD54 Holliday junction migration blockers – biochemical, fluorescence, cherry-picked samples, dose series, confirmation (AID 651657); format: functional
T3 sequence (Q92698 whole entry): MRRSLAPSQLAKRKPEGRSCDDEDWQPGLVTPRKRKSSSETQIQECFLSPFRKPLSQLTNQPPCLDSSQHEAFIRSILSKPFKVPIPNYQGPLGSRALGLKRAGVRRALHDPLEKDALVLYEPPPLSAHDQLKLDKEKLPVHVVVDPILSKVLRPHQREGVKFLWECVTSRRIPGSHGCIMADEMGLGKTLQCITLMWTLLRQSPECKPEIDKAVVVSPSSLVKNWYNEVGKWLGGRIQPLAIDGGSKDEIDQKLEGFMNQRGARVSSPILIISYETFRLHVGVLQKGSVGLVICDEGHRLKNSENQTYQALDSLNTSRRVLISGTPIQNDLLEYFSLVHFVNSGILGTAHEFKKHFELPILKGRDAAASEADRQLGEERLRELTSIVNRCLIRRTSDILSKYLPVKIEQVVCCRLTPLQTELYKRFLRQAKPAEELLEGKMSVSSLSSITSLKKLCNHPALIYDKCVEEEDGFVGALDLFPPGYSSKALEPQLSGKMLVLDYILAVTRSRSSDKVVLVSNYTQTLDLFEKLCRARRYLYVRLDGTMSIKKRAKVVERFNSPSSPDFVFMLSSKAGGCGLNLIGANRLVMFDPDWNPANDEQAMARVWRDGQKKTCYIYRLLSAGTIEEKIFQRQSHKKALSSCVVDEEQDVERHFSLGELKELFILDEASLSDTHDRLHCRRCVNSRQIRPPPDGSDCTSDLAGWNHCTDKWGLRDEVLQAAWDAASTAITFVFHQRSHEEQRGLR

[5] = target: T4, DNA repair protein RAD52 homolog (Homo sapiens, UniProt P43351); format: functional, biochemical
T4 sequence (P43351 whole entry): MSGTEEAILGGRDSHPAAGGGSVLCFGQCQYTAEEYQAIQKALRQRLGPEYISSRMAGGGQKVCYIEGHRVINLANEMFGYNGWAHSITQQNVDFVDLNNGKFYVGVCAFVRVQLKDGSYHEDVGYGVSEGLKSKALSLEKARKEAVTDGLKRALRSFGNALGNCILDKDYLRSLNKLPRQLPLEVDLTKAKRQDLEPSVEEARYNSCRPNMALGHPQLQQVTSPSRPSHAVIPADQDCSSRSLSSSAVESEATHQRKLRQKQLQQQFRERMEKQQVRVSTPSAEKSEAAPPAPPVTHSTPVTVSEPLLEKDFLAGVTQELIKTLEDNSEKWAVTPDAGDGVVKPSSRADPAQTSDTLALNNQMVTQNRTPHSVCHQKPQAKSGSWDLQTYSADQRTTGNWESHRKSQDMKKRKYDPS

[6] = target: T5, Replicative DNA helicase DnaB (Mycobacterium tuberculosis, UniProt P9WMR3); assay: DnaB intein splicing inhibitors, dose response, biochemical, cell-free fluorescence (AID 449749); format: functional
T5 sequence (P9WMR3 whole entry): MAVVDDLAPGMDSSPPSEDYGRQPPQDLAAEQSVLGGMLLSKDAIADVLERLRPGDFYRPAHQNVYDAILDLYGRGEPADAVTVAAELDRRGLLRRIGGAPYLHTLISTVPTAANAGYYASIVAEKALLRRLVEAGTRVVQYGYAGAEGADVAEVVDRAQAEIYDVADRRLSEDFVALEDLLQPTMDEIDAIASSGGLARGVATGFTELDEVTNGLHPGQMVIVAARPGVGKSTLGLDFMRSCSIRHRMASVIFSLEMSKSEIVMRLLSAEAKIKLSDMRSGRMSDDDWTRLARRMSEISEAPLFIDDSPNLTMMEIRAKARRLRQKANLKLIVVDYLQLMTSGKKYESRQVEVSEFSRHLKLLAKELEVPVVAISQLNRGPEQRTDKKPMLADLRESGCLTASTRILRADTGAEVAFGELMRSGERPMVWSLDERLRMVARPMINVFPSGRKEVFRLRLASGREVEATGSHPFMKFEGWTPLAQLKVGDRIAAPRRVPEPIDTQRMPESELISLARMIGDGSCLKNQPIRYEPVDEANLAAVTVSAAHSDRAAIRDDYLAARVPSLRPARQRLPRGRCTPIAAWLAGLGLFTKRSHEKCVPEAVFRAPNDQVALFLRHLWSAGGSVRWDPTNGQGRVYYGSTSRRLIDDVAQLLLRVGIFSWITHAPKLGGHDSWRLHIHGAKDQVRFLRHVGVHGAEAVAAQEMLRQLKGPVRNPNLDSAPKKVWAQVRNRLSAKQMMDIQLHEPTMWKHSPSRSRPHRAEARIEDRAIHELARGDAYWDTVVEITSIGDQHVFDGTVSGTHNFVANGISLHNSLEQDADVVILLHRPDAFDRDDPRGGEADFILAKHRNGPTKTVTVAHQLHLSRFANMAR

Protein RecA = target: T6, Protein RecA (Mycobacterium tuberculosis, UniProt P9WHJ3); assay: Fluorescence Cell-Free Homogeneous Dose Retest to Identify Inhibitors of RecA-Intein Splicing Activity. [Related pubchem assays (depositor defined):AID2097, AID2223, AID489010, AID492950]; format: functional
T6 sequence (P9WHJ3 whole entry): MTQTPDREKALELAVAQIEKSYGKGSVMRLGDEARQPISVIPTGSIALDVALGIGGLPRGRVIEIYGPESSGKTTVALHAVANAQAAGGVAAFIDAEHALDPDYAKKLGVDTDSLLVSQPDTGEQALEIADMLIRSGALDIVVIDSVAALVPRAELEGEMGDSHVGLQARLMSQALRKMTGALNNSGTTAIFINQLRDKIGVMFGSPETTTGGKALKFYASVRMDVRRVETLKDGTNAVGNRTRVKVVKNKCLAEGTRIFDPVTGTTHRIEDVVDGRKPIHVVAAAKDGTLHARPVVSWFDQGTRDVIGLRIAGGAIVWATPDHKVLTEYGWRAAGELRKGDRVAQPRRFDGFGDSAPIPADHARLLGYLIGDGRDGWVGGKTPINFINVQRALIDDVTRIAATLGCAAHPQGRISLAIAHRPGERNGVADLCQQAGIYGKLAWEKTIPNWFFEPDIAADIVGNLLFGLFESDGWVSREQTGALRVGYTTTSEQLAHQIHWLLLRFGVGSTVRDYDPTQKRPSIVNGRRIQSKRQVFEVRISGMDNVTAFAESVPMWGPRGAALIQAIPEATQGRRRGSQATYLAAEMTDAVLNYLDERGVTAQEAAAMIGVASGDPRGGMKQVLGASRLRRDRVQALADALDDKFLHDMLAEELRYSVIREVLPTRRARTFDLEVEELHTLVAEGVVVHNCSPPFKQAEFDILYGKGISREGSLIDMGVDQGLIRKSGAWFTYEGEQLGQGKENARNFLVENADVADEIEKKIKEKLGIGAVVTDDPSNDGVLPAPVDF

INS1 = assay: INS-1E survival protection against cytokine death – cell-based, luminescence, retest, dose response (AID 449756); format: functional; settings: Rattus norvegicus;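 further: cell death triggered by IL-1 beta plus TNF-alpha plus IFN-gamma mixture; protective hits raise ATP signal compared with cytokine alone wells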
[7] = reduction of Shn3 3'UTR-driven luciferase in osteoblasts – cell-based, Clone20 osteoblasts, firefly luciferase, cherry-picked, dose response (AID 624132); format: functional;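 further: firefly luciferase luminescence from reporter carrying the Shn3 3'UTR in osteoblasts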
[8] = loss of viability in HepG2 cells – cell-based, CellTiter-Glo, cherry-picked, cytotoxicity control for Shn3 inhibitor project, dose response (AID 624134); format: functional
[9] = non-specific 3'UTR reporter inhibition in Clone20-Shn3RL – cell-based, Renilla luciferase, cherry-picked, counter-screen for Shn3 inhibitor project, dose response (AID 624133); format: functional
[10] = target: Photoreceptor-specific nuclear receptor (Homo sapiens, UniProt Q9Y5X4); format: functional, cell-based;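 further: CHO-S cells with Gal4-NCOR and VP16-NR2E3 two-hybrid luciferase reporter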
Sequence of Photoreceptor-specific nuclear receptor (Q9Y5X4 whole entry, the tested form may be a part): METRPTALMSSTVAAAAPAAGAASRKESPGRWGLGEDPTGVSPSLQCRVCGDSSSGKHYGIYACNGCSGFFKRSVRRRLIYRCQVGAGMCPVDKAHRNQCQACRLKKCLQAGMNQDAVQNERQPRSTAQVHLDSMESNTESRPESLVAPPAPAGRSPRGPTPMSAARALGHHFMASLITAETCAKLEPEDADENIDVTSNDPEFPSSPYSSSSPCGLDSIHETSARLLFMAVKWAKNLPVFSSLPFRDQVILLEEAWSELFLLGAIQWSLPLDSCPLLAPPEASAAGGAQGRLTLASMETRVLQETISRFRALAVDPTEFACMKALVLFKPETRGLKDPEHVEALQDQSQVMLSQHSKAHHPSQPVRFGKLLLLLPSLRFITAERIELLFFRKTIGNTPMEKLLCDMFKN

Paired box protein Pax-8 = Paired box protein Pax-8 (Homo sapiens, UniProt Q06710); assay: PAX8 transcriptional activity inhibition in RMG-I – RMG-I cells, luciferase, cherry-pick, dose response (AID 687027); format: functional, cell-based;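 further: luciferase reporter driven by Pax8 target thyroperoxidase promoter measured by SteadyGlo luminescence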
Sequence of Paired box protein Pax-8 (Q06710 whole entry): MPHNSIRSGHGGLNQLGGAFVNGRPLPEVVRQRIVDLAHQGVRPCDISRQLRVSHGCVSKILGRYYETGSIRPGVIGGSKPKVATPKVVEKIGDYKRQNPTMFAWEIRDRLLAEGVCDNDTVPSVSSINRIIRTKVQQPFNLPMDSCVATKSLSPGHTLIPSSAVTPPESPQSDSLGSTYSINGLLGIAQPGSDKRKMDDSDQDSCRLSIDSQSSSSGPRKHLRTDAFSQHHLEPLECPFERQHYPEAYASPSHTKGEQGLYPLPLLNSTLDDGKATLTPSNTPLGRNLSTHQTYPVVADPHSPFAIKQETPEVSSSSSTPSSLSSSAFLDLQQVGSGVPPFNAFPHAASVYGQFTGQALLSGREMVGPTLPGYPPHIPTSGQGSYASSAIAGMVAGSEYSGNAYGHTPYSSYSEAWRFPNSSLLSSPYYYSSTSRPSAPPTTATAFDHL

[11] = target: Heat shock protein HSP 90-alpha (Homo sapiens, UniProt P07900); format: functional, organism-based
[12] = HIV-1 Vif–A3G interaction blockers – biochemical, TR-FRET, GST-Vif 1-94, biotin-A3G peptide, dose response retest, primary screen (AID 1117319); format: functional;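 further: TR-FRET signal of purified GST-Vif binding a biotinylated A3G peptide; inhibitors lower the FRET signal by blocking Vif and A3G binding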
[13] = Trypanosoma cruzi growth suppression in host cells – NIH3T3 host cells, beta-gal luminescence, confirmation (AID 2044); format: functional, cell-based;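 further: intracellular parasites grown in NIH/3T3 mouse fibroblasts as host cells; luminescent beta-galactosidase reporter signal from transgenic T. cruzi replicating inside host cells; inhibitors lower the luminescence signal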
[14] = NIH3T3 cell viability loss – ATP luminescence, mouse fibroblasts, counter-screen, dose response (AID 2010); format: functional, cell-based;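 further: cells exposed to compound for about 90 hours before reading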

## CCOc1ccc(-c2nnc(-c3ccco3)o2)cc1OCC
HEK293
  IC50: > 67.5 µM (inactive)
[1]
  IC50: > 67.5 µM (inactive)

## Cc1cc(-c2cc(NC=O)c3ncc(-c4cccc(C(=O)NCCN(C)C)c4)n3c2)cc(C)c1O
[2]
  IC50: > 66.6 µM (inactive)
[3]
  IC50: 20.2 µM (inactive)
[4]
  AC50: 8.33 µM (active)
[5]
  AC50: 1.54 µM (active)

## CC(C)c1ccc(/C=C(\c2nc3ccccc3[nH]2)S(=O)(=O)c2ccccc2)cc1
[6]
  AC50: 2.09 µM (active)
Protein RecA
  EC50: 2.01 µM (active)
INS1
  AC50: 4.38 µM (active)
[7]
  AC50: 4.01 µM (active)
[8]
  AC50: 18 µM (active)
[9]
  AC50: 10.5 µM (active)
[10]
  IC50: 2.72 µM (active)
Paired box protein Pax-8
  AC50: 5.15 µM (active)

## COc1ccc(NC(=O)C2CCCN2S(=O)(=O)c2cccc3cccnc23)c(OC)c1 (stereo not drawn)
[11]
  AC50: 1.49 µM (active)
[12]
  IC50: > 100 µM (active)

## Cc1cc(N2CCN(C)CC2)nc2ccc(NC(S)=NCCCN3CCN(C)CC3)cc12
[4]
  AC50: 24.6 µM (active)
[5]
  AC50: 3.59 µM (active)

## Cc1ccc2nc3c(c(Nc4ccc(O)cc4)c2c1)CCC3
[13]
  EC50: 1.06 µM (active)
[14]
  EC50: 8.88 µM (active)
[4]
  AC50: 39 µM (active)
[5]
  AC50: 20.5 µM (active)

## N=C(Cc1ccc(Cl)cc1Cl)NOC(=O)c1cccs1
[11]
  AC50: 3.59 µM (active)
